In patent publication US11958864B2, “Tetracyclic heterocycle compounds useful as HIV integrase inhibitors” (Merck Sharp & Dohme LLC, priority 2021, dated 2024):

Test: Dog pharmacokinetic studies: oral dosing of Compound A or prodrug, plasma Compound A by LC-MS/MS
Format: in vivo, Male Beagle Dogs
Details: fasted Beagle dogs, comparison with dosing of Compound A
Protocol: Male Beagle Dogs (Marshall Farms) were used for the pharmacokinetic studies. Studies were conducted under a protocol approved by the WP-IACUC (Animal Procedure Statement #2018-600787-MAR). Following overnight-fasting, dogs were dosed orally with either Compound A at 10 mg/kg and 25 mg/kg or one of the respective prodrugs at the dose equivalent to 10 mg/kg and 25 mg/kg of Compound A formulated as a suspension in either 0.5% methylcellulose with 0.25% sodium lauryl sulfate or 10% Tween 80-5 mM HCl. Food was returned at 4 hours after dosing. Blood (0.5-mL) was drawn at pre-dose, 0.25, 0.5, 1, 2, 4, 6, 24, 48, 72, 96, and 168 hours post-dosing into EDTA-coated collection tubes containing 25 μL of 2 mM dichlorvos solution in water. The tubes were kept chilled prior to blood collection and throughout plasma separation. The plasma was separated by centrifugation (2 minutes at 10000 g). Plasma samples were immediately frozen and kept at −70° C. until analysis by LC-MS/MS.

SMILES	absorption versus their metabolite, Compound A
COCCOC(=O)OCOc1c2n3c(c(C(=O)NCc4cccc(Cl)c4F)c1=O)CC[C@@H]3[C@@H]1OCCCN1C2=O [Compound 1, (((11aS,11bR)-3-((3-chloro-2-fluorobenzyl)carbamoyl)-4,6-dioxo-1,2,4,6,9,10,11a,11b-octahydro-8H-[1,3]oxazino[2′,3′:3,4]pyrazino[2,1,6-cd]indolizin-5-yl)oxy)methyl (2-methoxyethyl) carbonate]	increase in absorption
COC(=O)OCOc1c2n3c(c(C(=O)NCc4cccc(Cl)c4F)c1=O)CC[C@@H]3[C@@H]1OCCCN1C2=O [Compound 6, (((11aS,11bR)-3-((3-chloro-2-fluorobenzyl)carbamoyl)-4,6-dioxo-1,2,4,6,9,10,11a,11b-octahydro-8H-[1,3]oxazino[2′,3′:3,4]pyrazino[2,1,6-cd]indolizin-5-yl)oxy)methyl methyl carbonate]	increase in absorption
